{"source": "patent US20080131432A1", "about": "“Method of treating the chemotoxic effects of chemotherapeutic drugs on brain tissue” (University of Kentucky Research Foundation, priority 2005, published 2008)", "type_in_all_cases": "in vivo, mouse", "key": {"caspase 3": {"tested_on": "caspase 3", "test": "Caspase 3 activity in brain tissues", "conditions": "3 and 72 hours after 20 mg/kg ADR; hydrochloride"}, "MnSOD": {"tested_on": "MnSOD", "test": "Nitration of MnSOD (immunoprecipitation and western blot)", "conditions": "hydrochloride", "description": "Solubilized isolated mitochondrial proteins (500 μg) in 500 μL RIPA buffer (9.1 mM Na2HPO4, 1.7 mM NaH2PO4, 150 mM NaCl, 0.5% sodium deoxycholate, 1% v/v Nonidet P40, 0.1% SDS, pH 7.2) were incubated for 16 hours at 4° C. with 10 μg/mL anti-nitrotyrosine antibody (Cayman Chemical, Ann Arbor, Mich., USA) or polyclonal anti-MnSOD antibody (Upstate Biotechnology). Immune complexes were precipitated with 50 μL protein A/G-Agarose. Immunocomplexes were collected by centrifugation at 1500 g for 5 minutes at 4° C., and then washed four times with RIPA buffer. Immunoprecipitated samples were recovered by resuspending in 50 μL 2×sample loading buffer, heated to 95° C. for 5 minutes, and immediately fractionated by reducing SDS-PAGE in 12.5% gels. […] Immunoreactivities of the MnSOD nitrated protein bands were detected by ECL (Amersham Phamacia Biotech) as described by the manufacturer. Nitration of MnSOD was quantified using an akaline phosphatase-linked secondary antibody (Sigma), as described previously (Sultana et al. 2004), and evaluated by densitometric analysis used a Bio-Rad densitometer (Bio-Rad Laboratories, Hercules, Calif., USA)."}, "[1]": {"tested_on": "p53, Bax, Bcl-xS, Bcl-xL, MnSOD in mitochondria", "test": "Immunoblots of pro- and anti-apoptotic proteins in brain mitochondria", "description": "Perfused brain homogenates and isolated mitochondrial proteins were size-separated via 12.5% denaturing polyacrylamide gel electrophoresis (SDS-PAGE) and transferred to a nitrocellulose membrane. The membrane was blocked for 1 hour at room temperature in blocking solution consisting of 5% non-fat dried milk, 0.5% Tween-20 and Tris-buffered saline (TBST), pH 7.9. After blocking, the membrane was incubated overnight at 4° C. with primary antibodies against TNF α (Upstate, Lake Placid, N.Y.) and β-actin (Sigma, St. Louis, […].) in homogenate samples, or isolated mitochondria samples for p53 (Ab-11, Oncogene Research, Cambridge, Mass.), Bcl-xS/L (S-18), Bax (P-19) (Santa Cruz Biotechnology, Santa Cruz, Calif.), MnSOD (Upstate, Lake Placid, N.Y.), and glyceraldehyde-3-phosphate dehydrogenase (G-3-PDH, Trevigen, Gaithersburg, Md.) in blocking solution. The membrane was washed twice in TBST and incubated for 1 hour with horseradish peroxidase-conjugated secondary antibodies in blocking solution. After incubation with secondary antibodies, the membrane was washed twice with TBST and once in TBS (TBS without 0.5% Tween-20). Immunoreactivities of the protein bands were detected by enhanced chemiluminescence autoradiography (ECL, Amersham Phamacia Biotech, Arlington Heights, Ill.) as described by the manufacturer.\nThe final protein concentration was 20-40 mg/ml."}, "[2]": {"conditions": "after ADR 20 mg/kg, 3-72 hours, vs saline, hydrochloride"}, "[3]": {"conditions": "after ADR, any time point studied"}}, "note": "Entries after “also recorded” stand apart in the source; their conditions may differ. Structures can show the parent of a compound that is named as a salt.", "data": [{"smiles": "COc1cccc2c1C(=O)c1c(O)c3c(c(O)c1C2=O)C[C@@](O)(C(=O)CO)C[C@@H]3O[C@H]1C[C@H](N)[C@H](O)[C@H](C)O1", "note": "[ADR, Doxorubicin hydrochloride]", "values": [{"measurement": "Caspase 3 activity in brain tissues", "setting": "caspase 3", "result": "significantly increased; also recorded: increased at 72 hours compared with 3 hours"}, {"measurement": "Expression of immunoprecipitated MnSOD protein, control vs ADR-treated brain mitochondria", "setting": "MnSOD; immunoprecipitation with anti-MnSOD antibody", "result": "no difference in expression; also recorded: No significant difference"}, {"measurement": "Nitrated MnSOD (nitrotyrosine in MnSOD) in brain mitochondria", "setting": "MnSOD; wild-type mice, 3 hours after ADR 20 mg/kg", "result": "an increase of nitrated MnSOD; also recorded: significant increase in nitration of MnSOD; also recorded: significantly increased protein nitration"}, {"measurement": "Bax level in brain mitochondria", "setting": "[1]; [2]", "result": "increased with a similar kinetics to that of p53; also recorded: increased at 3 and 6 hours; also recorded: increase in protein density"}, {"measurement": "p53 level in brain mitochondria", "setting": "[1]; [2]", "result": "increased in mitochondria early times after ADR treatment (3, 6, 24 hours), then declined at 48, and 72 hours; also recorded: significantly increased at 3, 6, and 24 hours; also recorded: increase in protein density"}, {"measurement": "Bcl-xS level in brain mitochondria", "setting": "[1]; [3]", "result": "no significant changes"}, {"measurement": "MnSOD level in brain mitochondria", "setting": "[1]; [3]", "result": "no significant changes"}]}]}
